The values below come from ChEMBL document CHEMBL1132084, “Thrombin inhibitors based on a propargylglycine template” (Bioorg Med Chem Lett, 1999).

One series has as its target Prothrombin (Homo sapiens, UniProt P00734). The series can be described thus: Inhibition of human thrombin.
A further series has as its target Coagulation factor X (Homo sapiens, UniProt P00742). Put plainly: Inhibitory activity against factor Xa.
For a further series, the target named is Plasminogen (Homo sapiens, UniProt P00747). The series can be described thus: Inhibitory activity against plasmin.
Chain of Plasminogen (P00747 97-580 limits assumed): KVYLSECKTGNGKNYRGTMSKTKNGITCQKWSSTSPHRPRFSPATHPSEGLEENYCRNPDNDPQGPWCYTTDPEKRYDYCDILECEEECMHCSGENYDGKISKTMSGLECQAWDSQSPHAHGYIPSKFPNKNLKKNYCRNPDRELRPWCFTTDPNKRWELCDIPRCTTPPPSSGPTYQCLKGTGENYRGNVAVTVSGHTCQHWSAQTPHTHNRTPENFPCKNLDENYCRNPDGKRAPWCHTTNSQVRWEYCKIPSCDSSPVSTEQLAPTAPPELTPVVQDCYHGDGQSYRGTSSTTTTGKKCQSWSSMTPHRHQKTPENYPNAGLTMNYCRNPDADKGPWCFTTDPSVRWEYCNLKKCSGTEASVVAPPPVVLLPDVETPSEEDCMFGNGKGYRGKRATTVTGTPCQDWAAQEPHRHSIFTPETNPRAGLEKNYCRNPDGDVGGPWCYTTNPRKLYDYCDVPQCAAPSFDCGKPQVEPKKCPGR
Chain of Plasminogen (P00747 581-810 limits assumed): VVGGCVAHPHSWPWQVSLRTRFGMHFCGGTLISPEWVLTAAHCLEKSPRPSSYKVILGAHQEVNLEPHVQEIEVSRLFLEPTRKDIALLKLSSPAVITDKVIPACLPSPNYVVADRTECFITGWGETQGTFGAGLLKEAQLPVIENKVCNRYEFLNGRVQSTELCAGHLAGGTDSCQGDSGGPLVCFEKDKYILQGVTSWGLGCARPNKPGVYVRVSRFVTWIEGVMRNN
The target of the next series is T1, Serine protease 1 (Bos taurus, UniProt P00760).
T1 sequence (P00760 whole entry): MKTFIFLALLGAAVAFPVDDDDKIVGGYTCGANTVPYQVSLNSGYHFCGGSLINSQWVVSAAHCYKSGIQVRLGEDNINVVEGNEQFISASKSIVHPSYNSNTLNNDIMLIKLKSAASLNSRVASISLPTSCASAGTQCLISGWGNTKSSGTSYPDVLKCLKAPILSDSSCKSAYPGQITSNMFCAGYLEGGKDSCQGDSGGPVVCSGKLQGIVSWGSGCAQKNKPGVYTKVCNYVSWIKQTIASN
The series can be described thus: Inhibitory activity against bovine trypsin.

For series [1], the target named is Tissue-type plasminogen activator (Homo sapiens, UniProt P00750). The series can be described thus: Inhibitory activity against tissue type plasminogen activator (t-PA).
Chain of Tissue-type plasminogen activator (P00750 whole entry): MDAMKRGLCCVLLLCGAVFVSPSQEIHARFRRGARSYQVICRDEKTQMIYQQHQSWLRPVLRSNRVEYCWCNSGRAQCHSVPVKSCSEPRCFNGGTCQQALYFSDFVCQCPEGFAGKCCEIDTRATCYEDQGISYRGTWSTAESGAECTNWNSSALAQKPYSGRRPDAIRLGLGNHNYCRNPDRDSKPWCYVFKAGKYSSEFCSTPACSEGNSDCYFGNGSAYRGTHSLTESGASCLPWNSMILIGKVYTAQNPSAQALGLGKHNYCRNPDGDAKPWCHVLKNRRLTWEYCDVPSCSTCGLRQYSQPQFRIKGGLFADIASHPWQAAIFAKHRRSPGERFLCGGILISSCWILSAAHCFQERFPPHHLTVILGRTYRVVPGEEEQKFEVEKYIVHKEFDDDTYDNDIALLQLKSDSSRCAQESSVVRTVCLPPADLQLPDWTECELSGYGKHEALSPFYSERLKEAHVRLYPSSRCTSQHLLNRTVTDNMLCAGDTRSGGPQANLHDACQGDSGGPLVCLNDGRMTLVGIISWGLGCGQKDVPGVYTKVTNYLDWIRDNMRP
A short description of series [2]: Area under was determined at a dose of 30 mg/kg. It counts as ADME, organism-based. Set-up: dose 30 mg/kg. The following applies: in vivo.
Series [3] is described as follows: Cmax at a dose of […] mg/kg in rat. The series is classed as ADME, organism-based. The following applies: in vivo, 30 mg/kg.
The nature of series [4]: Tmax at a dose of 30 mg/kg in rat. Details: dose 30 mg/kg. To be noted: in vivo. The series is classed as ADME, organism-based.

Chain of Coagulation factor X (P00742 41-179 limits assumed): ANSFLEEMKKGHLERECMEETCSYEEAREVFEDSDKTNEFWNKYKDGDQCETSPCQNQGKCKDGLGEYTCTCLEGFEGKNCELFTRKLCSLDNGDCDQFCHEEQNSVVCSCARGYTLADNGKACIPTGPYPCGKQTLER
Chain of Coagulation factor X (P00742 235-488 limits assumed): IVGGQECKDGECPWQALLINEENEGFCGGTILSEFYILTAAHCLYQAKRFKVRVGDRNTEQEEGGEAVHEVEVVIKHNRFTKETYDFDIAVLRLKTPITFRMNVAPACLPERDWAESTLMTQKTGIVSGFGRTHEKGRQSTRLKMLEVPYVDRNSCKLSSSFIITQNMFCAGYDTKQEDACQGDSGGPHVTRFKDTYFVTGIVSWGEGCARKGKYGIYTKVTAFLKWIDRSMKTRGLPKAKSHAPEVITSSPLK

The Ki is a dissociation constant, usually derived from enzyme kinetics or from competition with a known ligand. The low end stands for a stronger hold on the target, the high end for a looser hold on the target. Turning to `CN(C(=O)[C@H](CC#Cc1ccc(N)c(N)c1)NS(=O)(=O)c1ccc2ccccc2c1)C1CCCC1`, the Ki at Prothrombin was determined as 0.22 µM.
At Prothrombin, `CNc1ncc(C#CC[C@H](NS(=O)(=O)c2ccc3ccccc3c2)C(=O)N(C)C2CCCC2)cn1` displayed a Ki of 3.5 µM.
On the same count and under the same terms, under `CN(C(=O)[C@H](CC#Cc1ccncc1)NS(=O)(=O)c1ccc2ccccc2c1)C1CCCC1` stands above 20 µM.
As for `CN(C(=O)[C@H](CC#Cc1cnc(N)s1)NS(=O)(=O)c1ccc2ccccc2c1)C1CCCC1`, the affinity on Prothrombin corresponds to a Ki of 4.5 µM.
Still for that read-out and setting: under `CN(C(=O)[C@H](CC#Cc1ccc(CN)cc1)NS(=O)(=O)c1ccc2ccccc2c1)C1CCCC1` stands 3.4 µM.
With `CNc1ccc(C#CC[C@H](NS(=O)(=O)c2ccc3ccccc3c2)C(=O)N(C)C2CCCC2)cc1`, the Ki on Coagulation factor X is 8.7 µM; at Plasminogen it was above 200 µM; on Prothrombin, 0.019 µM; on Serine protease 1, 37 µM; in series [1] it was above 200 µM.
As for `CCCc1ccc(S(=O)(=O)N[C@@H](CC#Cc2ccc(NC)cc2)C(=O)N(C)C2CCCC2)cc1`, the Ki on Coagulation factor X is 6.6 µM; at Plasminogen, above 200 µM; on Prothrombin, 0.008 µM; on Serine protease 1 it was above 30 µM; in series [1], 190 µM.
In the case of `CN(C(=O)[C@H](CC#Cc1cccnc1)NS(=O)(=O)c1ccc2ccccc2c1)C1CCCC1`, affinity on Prothrombin was put at a Ki of 2.5 µM.
For the compound `CNc1ccc(C#CC[C@H](NS(=O)(=O)c2ccc3ccccc3c2)C(=O)N(C)C2CCCC2)cc1N`, the Ki at Prothrombin stood at 0.04 µM; at Serine protease 1 it was 32 µM.
Regarding `CCNc1ccc(C#CC[C@H](NS(=O)(=O)c2ccc3ccccc3c2)C(=O)N(C)C2CCCC2)cc1`, the Ki at Prothrombin was 49 µM.
For `CN(C(=O)[C@H](CC#Cc1ccc(N)nc1)NS(=O)(=O)c1ccc2ccccc2c1)C1CCCC1`, the affinity at Prothrombin corresponds to a Ki of 1.5 µM.
Compound `CN(C(=O)[C@H](CC#Cc1cnc[nH]1)NS(=O)(=O)c1ccc2ccccc2c1)C1CCCC1` returned a Ki at Prothrombin of 3 µM.
Same read-out and setting: to `CN(C(=O)[C@H](CC#Cc1cccc(N)c1)NS(=O)(=O)c1ccc2ccccc2c1)C1CCCC1` belongs 2.2 µM.
`CN(C(=O)[C@H](CC#Cc1ccc(NN)cc1)NS(=O)(=O)c1ccc2ccccc2c1)C1CCCC1` came in with a Ki at Prothrombin of 1.5 µM.
The term AUC denotes concentration integrated over time. A lower AUC goes with low exposure. A word on the Cmax: it is the maximum level reached in the sampled fluid or tissue. In general, Tmax refers to the time from dosing to the highest level. The compound `CNc1ccc(C#CC[C@H](NS(=O)(=O)c2ccc3c(c2)CCCC3)C(=O)N(C)C2CCCC2)cc1` yielded an AUC in series [2] of 4.6 µM·h. This compound also had a Cmax in series [3] of 1800 nM. Besides, the Tmax in series [4] was 45 min. Besides, the Ki was 1.9 µM on Coagulation factor X; above 200 µM on Plasminogen; 0.005 µM at Prothrombin; above 30 µM on Serine protease 1; 200 µM in series [1].
Compound `CN(C(=O)[C@H](CC#Cc1cnc(N)nc1)NS(=O)(=O)c1ccc2ccccc2c1)C1CCCC1` registered a Ki at Prothrombin above 20 µM.
Turning to `CNc1ccc(C#CC[C@H](NS(=O)(=O)c2ccc3cc(OC)ccc3c2)C(=O)N(C)C2CCCC2)cc1`, the inhibition constant Ki is 14 µM on Coagulation factor X; above 200 µM on Plasminogen; 0.027 µM on Prothrombin; above 30 µM at Serine protease 1; above 200 µM in series [1].
For `CNc1ccc(C#CC[C@H](NS(=O)(=O)c2ccc3ccccc3c2)C(=O)N(C)C2CCCC2)cn1`, the Ki at Prothrombin came to 0.3 µM.
The same measure, in the same setting: under `CN(C(=O)[C@H](CC#Cc1ccc(N)cc1)NS(=O)(=O)c1ccc2ccccc2c1)C1CCCC1` stands 0.29 µM.
